Measurements as given in ChEMBL document CHEMBL1201862, “PubChem BioAssay data set” (2004).
The source made the active and inactive calls. Unless noted, the calls are words filed in the database; no cut-off is given here.

How the values were obtained:
[1] = antiviral protection against BTV-induced cell death – arbovirus, BSR cells, confirmation (AID 1250); type: functional;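 further: protection from viral cytopathic effect measured as cell viability by ATP luminescence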
[2] = molecular target: Mucolipin-3 (Homo sapiens, UniProt Q8TDD5); assay: Dose response cell-based high-throughput screening assay for agonists of the transient receptor potential channel ML3 (TRPML3). [Related pubchem assays: 1526, 1424, 1448 ]; type: functional
Chain of Mucolipin-3 (Q8TDD5 whole entry): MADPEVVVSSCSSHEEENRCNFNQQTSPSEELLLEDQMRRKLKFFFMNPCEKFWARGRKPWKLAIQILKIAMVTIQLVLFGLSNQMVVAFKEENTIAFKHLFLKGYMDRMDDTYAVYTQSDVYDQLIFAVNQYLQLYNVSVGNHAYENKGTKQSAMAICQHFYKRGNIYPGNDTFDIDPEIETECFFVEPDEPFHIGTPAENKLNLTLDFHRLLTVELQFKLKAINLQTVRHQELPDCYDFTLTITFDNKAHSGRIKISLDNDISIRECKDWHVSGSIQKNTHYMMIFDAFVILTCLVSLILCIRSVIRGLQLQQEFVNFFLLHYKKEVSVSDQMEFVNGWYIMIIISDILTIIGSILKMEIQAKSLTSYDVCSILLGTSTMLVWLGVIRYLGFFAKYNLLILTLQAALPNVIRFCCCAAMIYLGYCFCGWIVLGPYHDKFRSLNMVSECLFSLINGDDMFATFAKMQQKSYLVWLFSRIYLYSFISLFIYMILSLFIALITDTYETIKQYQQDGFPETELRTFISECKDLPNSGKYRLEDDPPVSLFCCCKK

[3] = molecular target: Ion channel NompC (Danio rerio, UniProt Q7T1G6); assay: Fluorescence counterscreen assay for TRPML3 agonists: dose response cell-based high-throughput screening assay to identify agonists of the transient receptor potential channel N1 (TRPN1). [Related pubchem assays: 1526, 1424, 1448 ]; type: functional
Chain of Ion channel NompC (Q7T1G6 whole entry): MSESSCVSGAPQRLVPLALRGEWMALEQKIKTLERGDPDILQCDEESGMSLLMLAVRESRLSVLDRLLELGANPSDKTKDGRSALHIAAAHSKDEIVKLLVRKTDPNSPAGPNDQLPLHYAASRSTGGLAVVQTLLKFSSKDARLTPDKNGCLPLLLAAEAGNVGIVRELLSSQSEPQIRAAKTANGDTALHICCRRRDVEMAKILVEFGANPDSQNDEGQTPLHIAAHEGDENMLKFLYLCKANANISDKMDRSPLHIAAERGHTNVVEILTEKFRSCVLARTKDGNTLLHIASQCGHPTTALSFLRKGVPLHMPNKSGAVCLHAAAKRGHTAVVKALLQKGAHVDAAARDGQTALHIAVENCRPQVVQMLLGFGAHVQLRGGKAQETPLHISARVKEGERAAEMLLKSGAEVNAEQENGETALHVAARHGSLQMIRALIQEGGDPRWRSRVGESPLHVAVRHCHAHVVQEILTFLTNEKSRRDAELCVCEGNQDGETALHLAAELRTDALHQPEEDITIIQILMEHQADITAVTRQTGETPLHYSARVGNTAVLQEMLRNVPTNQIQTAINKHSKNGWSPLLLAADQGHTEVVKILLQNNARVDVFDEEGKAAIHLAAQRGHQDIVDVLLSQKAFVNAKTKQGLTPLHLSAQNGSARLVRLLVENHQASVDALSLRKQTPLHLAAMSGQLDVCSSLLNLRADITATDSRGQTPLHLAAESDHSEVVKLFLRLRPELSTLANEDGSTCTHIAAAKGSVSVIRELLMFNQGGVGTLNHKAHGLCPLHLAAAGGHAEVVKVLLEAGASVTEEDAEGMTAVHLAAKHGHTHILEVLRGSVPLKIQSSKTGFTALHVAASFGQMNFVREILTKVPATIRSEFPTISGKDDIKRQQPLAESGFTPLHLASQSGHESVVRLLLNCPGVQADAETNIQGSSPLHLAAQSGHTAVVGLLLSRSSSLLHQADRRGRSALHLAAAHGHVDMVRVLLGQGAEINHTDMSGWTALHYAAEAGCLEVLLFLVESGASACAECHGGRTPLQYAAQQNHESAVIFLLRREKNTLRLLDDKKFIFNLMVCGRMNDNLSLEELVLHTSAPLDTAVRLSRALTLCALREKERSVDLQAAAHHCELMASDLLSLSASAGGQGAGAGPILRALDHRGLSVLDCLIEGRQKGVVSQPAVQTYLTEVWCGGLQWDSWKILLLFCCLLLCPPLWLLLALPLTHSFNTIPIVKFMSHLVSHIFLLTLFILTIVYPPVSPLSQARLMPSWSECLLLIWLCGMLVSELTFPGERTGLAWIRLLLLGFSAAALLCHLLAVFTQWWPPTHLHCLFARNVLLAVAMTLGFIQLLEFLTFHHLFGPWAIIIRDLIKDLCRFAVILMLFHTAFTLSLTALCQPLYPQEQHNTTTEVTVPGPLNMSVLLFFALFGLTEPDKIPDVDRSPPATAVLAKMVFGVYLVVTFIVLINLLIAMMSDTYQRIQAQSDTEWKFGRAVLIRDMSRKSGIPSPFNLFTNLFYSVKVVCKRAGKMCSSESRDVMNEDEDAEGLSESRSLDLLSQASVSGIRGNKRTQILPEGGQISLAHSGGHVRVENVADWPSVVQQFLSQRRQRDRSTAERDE

[4] = molecular target: Oxytocin receptor (Homo sapiens, UniProt P30559); assay: Counterscreen for vasopressin 1 receptor (V1R) agonists: Fluorescence-based cell-based high throughput dose response assay for agonists of the Oxytocin Receptor (OXTR). [Related pubchem assays: 2435 (Primary screen (OXTR agonists in singlicate)), 434964 (Confirmation screen (V1R agonists in triplicate)), 434969 (Counterscreen (OXTR agonists in …; type: functional
Chain of Oxytocin receptor (P30559 whole entry): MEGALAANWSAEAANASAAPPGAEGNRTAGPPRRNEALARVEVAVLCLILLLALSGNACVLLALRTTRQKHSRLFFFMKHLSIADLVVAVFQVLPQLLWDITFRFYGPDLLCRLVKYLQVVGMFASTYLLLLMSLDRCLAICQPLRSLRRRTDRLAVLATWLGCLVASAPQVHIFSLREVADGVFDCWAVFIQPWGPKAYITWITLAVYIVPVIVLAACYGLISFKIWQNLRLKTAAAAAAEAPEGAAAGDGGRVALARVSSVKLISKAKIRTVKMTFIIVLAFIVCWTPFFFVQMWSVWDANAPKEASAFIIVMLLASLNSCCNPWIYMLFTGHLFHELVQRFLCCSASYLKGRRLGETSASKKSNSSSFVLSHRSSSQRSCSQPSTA

[5] = molecular target: Vasopressin V1a receptor (Homo sapiens, UniProt P37288); assay: Fluorescence-based cell-based high throughput dose response screening assay for agonists of the vasopressin 1 receptor (V1R).; type: functional
Chain of Vasopressin V1a receptor (P37288 whole entry): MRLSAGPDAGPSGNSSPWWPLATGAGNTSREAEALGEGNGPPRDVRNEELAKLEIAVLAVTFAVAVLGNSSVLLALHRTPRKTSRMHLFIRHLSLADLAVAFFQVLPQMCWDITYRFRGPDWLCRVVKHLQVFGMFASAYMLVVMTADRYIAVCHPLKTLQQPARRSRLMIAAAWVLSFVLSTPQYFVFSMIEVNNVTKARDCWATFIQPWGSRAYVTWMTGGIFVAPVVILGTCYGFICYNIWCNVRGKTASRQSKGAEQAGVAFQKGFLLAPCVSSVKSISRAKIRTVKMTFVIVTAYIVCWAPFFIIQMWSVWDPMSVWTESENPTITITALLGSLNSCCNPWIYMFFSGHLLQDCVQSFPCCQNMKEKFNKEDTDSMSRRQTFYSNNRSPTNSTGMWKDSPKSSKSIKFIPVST

[6] = molecular target: Inward rectifier potassium channel 2 (Mus musculus, UniProt P35561); assay: Manual electrophysiological patch clamp assay for SAR compounds that inhibit/block inward-rectifying potassium ion channel Kir2.1. [Related pubchem assays: 1843 (Summary assay for Kir2.1 inhibitor assays.), 1672 (Primary HTS of 305616 compounds where 2592 were identified as active.)]; type: functional
Chain of Inward rectifier potassium channel 2 (P35561 whole entry): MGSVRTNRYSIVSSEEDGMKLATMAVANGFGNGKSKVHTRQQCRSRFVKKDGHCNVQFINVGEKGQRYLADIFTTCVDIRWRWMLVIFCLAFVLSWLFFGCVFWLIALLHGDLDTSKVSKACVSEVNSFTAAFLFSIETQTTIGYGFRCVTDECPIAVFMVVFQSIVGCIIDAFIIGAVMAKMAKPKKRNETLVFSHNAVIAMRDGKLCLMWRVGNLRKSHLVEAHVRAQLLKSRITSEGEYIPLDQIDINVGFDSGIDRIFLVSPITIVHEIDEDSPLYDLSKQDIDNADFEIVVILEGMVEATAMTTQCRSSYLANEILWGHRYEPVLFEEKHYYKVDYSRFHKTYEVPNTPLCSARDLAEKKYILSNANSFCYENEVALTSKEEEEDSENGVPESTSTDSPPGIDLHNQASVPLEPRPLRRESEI

[7] = molecular target: Induced myeloid leukemia cell differentiation protein Mcl-1 (Homo sapiens, UniProt Q07820); assay: blockers of MCL1 binding to BIM peptide – biochemical, fluorescence polarization, BIM-BH3 peptide, 1536-well, dose response (AID 2217)
Chain of Induced myeloid leukemia cell differentiation protein Mcl-1 (Q07820 whole entry): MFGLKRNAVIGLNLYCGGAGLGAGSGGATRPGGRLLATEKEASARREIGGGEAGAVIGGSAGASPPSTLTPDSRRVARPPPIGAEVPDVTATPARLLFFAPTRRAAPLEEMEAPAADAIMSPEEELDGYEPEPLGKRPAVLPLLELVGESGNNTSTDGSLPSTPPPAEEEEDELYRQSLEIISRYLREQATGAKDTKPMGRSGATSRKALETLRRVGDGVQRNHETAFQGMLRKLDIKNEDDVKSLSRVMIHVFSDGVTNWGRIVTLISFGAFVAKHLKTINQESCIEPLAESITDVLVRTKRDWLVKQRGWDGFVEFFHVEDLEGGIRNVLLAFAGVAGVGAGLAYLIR

[8] = molecular target: Bcl-2-like protein 1 (Homo sapiens, UniProt Q07817); assay: blockers of BCLXL peptide binding – biochemical, fluorescence polarization, 1536-well, selectivity assay for MCL1 inhibitor project, dose response (AID 2218)
Chain of Bcl-2-like protein 1 (Q07817 whole entry): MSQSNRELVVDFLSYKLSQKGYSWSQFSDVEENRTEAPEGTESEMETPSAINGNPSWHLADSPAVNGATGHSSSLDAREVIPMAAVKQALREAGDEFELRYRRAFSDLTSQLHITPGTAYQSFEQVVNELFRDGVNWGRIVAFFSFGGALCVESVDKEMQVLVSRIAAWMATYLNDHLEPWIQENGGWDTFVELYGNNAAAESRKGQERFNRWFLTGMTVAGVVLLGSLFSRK

[9] = Luminescence-based counterscreen assay for KLF5 inhibitors: dose response cell-based high throughput screening assay to identify cytotoxic compounds using the IEC-6 intestinal epithelial cell line. [Related pubchem assays: 1700 (Primary screen.), 1834 (Confirmation screen.), 1858 (Summary AID.), 1905 (Counterscreen.)]; type: functional

In the case of `CCNC(=O)NC(=O)C(C)Sc1nc2cc(C(=O)OC)ccc2c(=O)n1-c1ccccc1` (centres undefined), the IC50 [1] is reported as 28.9 µM (active).

With `CCC(C(=O)Nc1cc(C)nn1-c1nc(C)cc(C)n1)c1ccccc1` (centres undefined) the EC50 [2] was > 29.9 µM (not active) and the EC50 [3] was > 29.9 µM (not active).

In the case of `CC(NC(=O)Nc1ccc(Cl)c(Cl)c1)C(c1ccccc1)N1CCOCC1` (centres undefined), the EC50 [4] is reported as > 29.9 µM (not active) and the EC50 [5] is reported as 6.23 µM (active).

In the case of `COc1ccc(CNCc2ccc(C(C)(C)C)cc2)cc1`, the IC50 [6] is reported as 1.27 µM (active).

For `CCOC(=O)C[C@H]1c2ccc(C(F)(F)F)cc2S(=O)(=O)N1c1cccc(OC)c1`, the IC50 [7] was > 109 µM (not active) and the IC50 [8] was > 109 µM (not active).

For `O=C(N/N=C/c1cccc(Oc2ccccc2)c1)c1ccccc1F`, the IC50 [9] was 18.7 µM (not active).
